Two compounds from PMC9691366, “Modulating the pharmacokinetic profile of Actinium-225-labeled macropa-derived radioconjugates by dual targeting of PSMA and albumin” (Theranostics, 2022) can be followed below.

Marks after values point to notes of the source that are not given here.

The conditions of data set [1]: over 7 days. How it is done: The final conjugates mcp-M-alb-PSMA and mcp-D-alb-PSMA were successfully radiolabeled with ^225Ac at a concentration down to 10^-6 M with radiochemical conversions of higher than 99% within 15 min at room temperature and a resulting molar activity of 1 MBq/nmol. The radiolabeled actinium complexes [^225Ac]Ac-mcp-M-alb-PSMA and [^225Ac]Ac-mcp-D-alb-PSMA were characterized regarding decomplexation (by radio-TLC) and degradation (by radio-HPLC). […] Log D values for [^225Ac]Ac-mcp-M-alb-PSMA and [^225Ac]Ac-mcp-D-alb-PSMA were determined at pH 7.4 to be ‑2.4 and -1.7, respectively.
^225Ac was commercially supplied by ITM as [^225Ac]AcCl3. Radiolabeling was performed using 100 kBq ^225Ac, the respective ligand stem solution (10^-2 M - 10^-6 M) to reach the required ligand concentration (10^-3 M - 10^-7 M), the necessary amount of 2,5-dihydroxybenzoic acid (final concentration 0.1 M) and a volume of 0.2 M NH4OAc (pH 6) to adjust a total volume of 100 µL. […]
Once the labeling reaction was finished, samples were taken out and the ^225Ac-radioconjugates were analyzed via TLC (two systems: 1 - 0.05 M EDTA (pH 7) on silica plates; 2 - 70/30 acetonitrile/H2O on alugram RP-CN plates) and analytical HPLC on a Jasco HPLC system with GABI analyzer (Elysia Raytest) for gamma detection on a Phenomenex Phenyl-Hexyl column in water/acetonitrile (0.1% TFA each).

For data set [2], the system named is LNCaP tumor-bearing SCID mice. In kind it is in vivo, mouse. How it is done:
Formalin-fixed and paraffin-embedded mouse tissues were cut in 5 µm sections and immunostained with appropriate antibodies according to standard techniques as well as with standard H&E staining. Antigen retrieval was performed in citrate buffer (pH 6) for all primary antibodies: Ki-67 (clone MIB1, DAKO; dilution 1:200), γH2AX (clone JBW301, Millipore; dilution 1:2500) and PSMA (clone YPSMA-1, Abcam; dilution 1:1000). The presence or absence of necrosis and its percentage in the tumor samples were evaluated by experienced pathologist. […] The data were analyzed using Kruskal-Wallis test followed by Dunn post hoc test using GraphPad Prism version 7.05 (GraphPad Software, San Diego, CA, USA).

The subject of the next data set is LNCaP cells. As to the kind of experiment: Clonogenic survival assay. In kind it is cell-based, human. Particulars: for inhibition of colony formation: 1 h exposure; for EC50 for 1 h treatment: clonogenic survival of LNCaP cells, 95% confidence interval in brackets. The method, then: Figure 3 Clonogenic survival of LNCaP cells after treatment with [^225Ac]Ac-mcp-M-alb-PSMA or [^225Ac]Ac-mcp-D-alb-PSMA for (A) 1 h or (B) 4 h, respectively. Cells were exposed to different activity concentrations of 225Ac-labeled PSMA conjugates for the indicated treatment time and thereafter supplemented with fresh medium. Eight days later, colonies formed were stained and counted by digital analysis. Data points represent the mean colony number of three samples, normalized to values obtained for the untreated reference samples.
Colony formation of LNCaP cells upon exposure to increasing activity concentrations of both ^225Ac-radioconjugates was analyzed as previously reported with slight modifications. Briefly, 6000 LNCaP cells were seeded in 6-well microplates (Greiner Bio-One GmbH, Frickenhausen, Germany) and cultivated overnight to allow cell adhesion. The cell culture medium was replaced by serum-free RPMI-1640 medium (2 mL/well) and the microplates were further incubated at 37 °C. After 1 h, five different activity concentrations (0.05, 0.5, 1, 5, and 50 kBq/mL) of the ^225Ac-radioconjugates were added in triplicate. After 1 or 4 h of incubation at 37 °C, the supernatants were replaced by fresh RPMI-1640 medium with 10% FCS (2 mL/well) and plates were incubated at 37 °C for 8 d. Finally, the cell culture medium was discarded and colonies were stained with 0.5% crystal violet in 50% methanol (1 mL/well) for 30 min, after which the plates were rinsed three times with deionized water and subsequently air-dried. The plates were scanned with an Amersham Typhoon 5 Scanner (Cytiva Europe GmbH, Freiburg, Germany) and the colonies were counted using the Image-Quant TL software (Version 8.1, Cytiva Europe GmbH, Freiburg, Germany).

The format of data set [3] is physicochemical. Particulars: pH 7.4. How it is done: 1-Octanol/water distribution coefficients (log D) were determined by applying the shake-flask-method. 20 µL of the reaction mixture were poured into 580 µL of 5xPBS (pH 7.4). Afterwards, 600 µL of 1-octanol was added and the two-phase-system was vigorously stirred for 5 min. Then, the samples were centrifuged, the phases were separated and the count rates were measured using ISOMED2160 sodium iodide crystal detector (at least 4 h after phase separation due to initial decay products).

For a further data set, the target named is PSMA (Homo sapiens, UniProt Q04609). Kind of data set: Saturation binding studies on PSMA-positive LNCaP cells. Particulars: 95% confidence interval in brackets; for Kd: on ice. The method, then: The cell binding behavior of the ^225Ac-labeled, 4-(p-iodophenyl)butyrate-containing PSMA radioconjugates [^225Ac]Ac-mcp-M-alb-PSMA and [^225Ac]Ac-mcp-D-alb-PSMA was analyzed in saturation binding studies using PSMA-positive LNCaP cells.
PSMA, sequence (Q04609 whole entry): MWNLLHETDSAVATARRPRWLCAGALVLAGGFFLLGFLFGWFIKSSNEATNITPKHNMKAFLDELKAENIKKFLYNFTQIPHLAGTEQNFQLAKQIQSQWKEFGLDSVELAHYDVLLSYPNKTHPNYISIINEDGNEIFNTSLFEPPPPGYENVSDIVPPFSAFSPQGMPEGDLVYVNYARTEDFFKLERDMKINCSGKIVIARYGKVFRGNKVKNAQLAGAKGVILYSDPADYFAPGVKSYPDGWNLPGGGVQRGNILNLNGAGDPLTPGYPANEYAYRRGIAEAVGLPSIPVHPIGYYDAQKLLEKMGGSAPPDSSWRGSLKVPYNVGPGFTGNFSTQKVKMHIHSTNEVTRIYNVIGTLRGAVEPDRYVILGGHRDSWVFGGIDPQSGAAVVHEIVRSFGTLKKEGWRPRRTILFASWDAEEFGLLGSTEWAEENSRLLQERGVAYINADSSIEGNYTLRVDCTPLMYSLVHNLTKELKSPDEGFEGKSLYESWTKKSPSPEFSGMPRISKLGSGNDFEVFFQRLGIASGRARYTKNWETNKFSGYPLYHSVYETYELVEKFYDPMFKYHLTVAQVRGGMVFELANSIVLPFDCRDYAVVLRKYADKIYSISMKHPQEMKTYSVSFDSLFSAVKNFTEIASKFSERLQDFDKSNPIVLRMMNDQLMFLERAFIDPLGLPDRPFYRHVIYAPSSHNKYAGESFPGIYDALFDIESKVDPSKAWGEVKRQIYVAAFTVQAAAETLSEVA
Figure 2 Saturation binding curves for (A) [^225Ac]Ac-mcp-M-alb-PSMA and (B) [^225Ac]Ac-mcp-D-alb-PSMA. Nonspecific binding was determined in the presence of 500 µM unlabeled PSMA-617. Specific binding was calculated as the difference between total and nonspecific binding (n = 3 for each data point).
Saturation binding studies to determine the equilibrium dissociation constants (KD) and the maximum binding capacities (Bmax) were performed as described elsewhere. In short, 30000 LNCaP cells were seeded in 48-well microplates (Greiner Bio-One GmbH, Frickenhausen, Germany) and cultivated for 48 h to allow cell adhesion and growth. During the experiment, cells were kept on ice and all reagents were added ice-cold. The cell culture medium was replaced by PBS (200 µL/well) and the microplates were preincubated for 30 min at 4 °C. The ^225Ac-radioconjugates were added to the wells in a volume of 200 µL at different concentrations (15 pM to 500 nM). The nonspecific binding was assessed in parallel by blocking the LNCaP cells with a 1000-fold excess of unlabeled PSMA-617. After incubation of the microplates for 90 min on ice, the cells were washed three times with ice-cold PBS. The cells were lysed in 0.1 M NaOH containing 1% (w/v) sodium dodecyl sulfate. The activity of cell lysates was measured using an automatic gamma counter (Hidex Deutschland Vertrieb GmbH, Mainz, Germany).

As for `O=C(O)CC[C@H](NC(=O)N[C@@H](CCCCNC(=O)[C@H](Cc1ccc2ccccc2c1)NC(=O)[C@H]1CC[C@H](CNC(=O)[C@H](CCCCn2cc(COc3cc(CN4CCOCCOCCN(Cc5cc(OCc6cn(CCCC[C@H](NC(=O)[C@H](CCC(=O)O)NC(=O)CCCc7ccc(I)cc7)C(=O)NC[C@H]7CC[C@H](C(=O)N[C@@H](Cc8ccc9ccccc9c8)C(=O)NCCCC[C@H](NC(=O)N[C@@H](CCC(=O)O)C(=O)O)C(=O)O)CC7)nn6)cc(C(=O)O)n5)CCOCCOCC4)nc(C(=O)O)c3)nn2)NC(=O)[C@H](CCC(=O)O)NC(=O)CCCc2ccc(I)cc2)CC1)C(=O)O)C(=O)O` [[^225Ac]Ac-mcp-D-alb-PSMA, metal not drawn], in data set [1], the “^225Ac release (decomplexation, radio-TLC)” value is listed as “did not show any ^225Ac release”. Further, the “H&E stain of tumor tissue (necrosis)” value in data set [2] (72, 120 and 168 h p.i.) was “necrotic lesions in the group 72 h p.i”. The “average γH2AX histoscore, kidney” value in data set [2] (mouse, in vivo) turned out to be 99. In the data set on LNCaP cells (0.05 kBq/mL), the “inhibition of colony formation” value is reported as “about 50%”. In addition, the “inhibition of colony formation” value in the data set with LNCaP cells (0.5 kBq/mL) is “virtually abrogated clonogenic activity”. Besides, the “EC50 for 1 h treatment” value in the data set with LNCaP cells is recorded as 0.0519 (0.0353 to 0.0753)^# kBq/mL. In addition, the pH-dependent lipophilicity (logD) in data set [3] was -1.7. Further, at PSMA, the Bmax is recorded as 1.96 (1.89 to 2.04)^# pmol/mg of protein and the Kd turned out to be 0.0116 µM.

For `O=C(O)CC[C@H](NC(=O)N[C@@H](CCCCNC(=O)[C@H](Cc1ccc2ccccc2c1)NC(=O)[C@H]1CC[C@H](CNC(=O)[C@H](CCCCn2cc(COc3cc(CN4CCOCCOCCN(Cc5cccc(C(=O)O)n5)CCOCCOCC4)nc(C(=O)O)c3)nn2)NC(=O)[C@H](CCC(=O)O)NC(=O)CCCc2ccc(I)cc2)CC1)C(=O)O)C(=O)O` [[^225Ac]Ac-mcp-M-alb-PSMA, metal not drawn], the “^225Ac release (decomplexation, radio-TLC)” value in data set [1] was “did not show any ^225Ac release”. For the same compound, in data set [2] (compared to untreated controls), the “Ki67 expression in tumor (cellular proliferation)” value was “did not show any significant decrease in proliferation” and the “γH2AX staining of tumor tissue (DNA damage)” value was “significant DNA damage in tumor cells”. In addition, in data set [2] (mouse, in vivo), the “H&E stain of liver tissue (necrosis)” value is reported as “significant necrosis” and the “average γH2AX histoscore, kidney” value is recorded as 62. The “inhibition of colony formation” value in the data set with LNCaP cells (0.5 kBq/mL) is recorded as “about 50%”. Moreover, the “inhibition of colony formation” value with LNCaP cells (5 kBq/mL) is listed as “almost complete inhibition of colony formation”. Further, in the data set with LNCaP cells, the “EC50 for 1 h treatment” value is 0.5233 (0.4010 to 0.6767)^# kBq/mL. In addition, the logD in data set [3] is -2.4. Also, on PSMA, the Bmax is listed as 0.46 (0.43 to 0.49)^# pmol/mg of protein and the dissociation constant Kd came out at 0.0234 µM.

In general, logD refers to the decadic logarithm of the distribution of all forms, ionised or not, between an organic phase and buffer at a given pH. For orientation: Kd means a measure of binding affinity in units of concentration.
